Key:
[1] = Alendronate-conjugated peptides on bone metabolism in 2-month-old female mice; assay type: in vivo; settings: at the two doses used
Procedure: FIGS. 15A-15C show two-month-old female mice treated with PBS control; YLL3-Aln or YLL8-Aln at 100 […], subcutaneously, once every two weeks for 2 doses; or YLL3-Aln or YLL8-Aln at 500 m/kg, one IV dose. Mice were euthanized at 28 days (n=4-5/group).
Trabecular bone formation was measured in the distal femoral metaphysis. *, p<0.05 vs PBS. Arrows show double labeled bone surfaces.
Next, the effects of alendronate-conjugated peptides on bone metabolism were evaluated. Two-month-old female mice were treated with PBS control, YLL3-Ale or YLL8-Ale at 100 μg/kg (25 nmol) or 300 μg/kg (75 nmol), subcutaneously, once every other week, or with one IV dose of 500 μg/kg. Two injections were given per mouse. The total cumulative doses were between 200 and 600 μg/kg/month (25-150 nmol), respectively. Alendronate concentration was approximately 1/10-⅕ of the compound. […] In contrast, YLL8-Ale at the 300 μg/kg×2 SC doses or 500 μg/kg×1 IV dose increased trabecular bone volume by more than 20% (p<0.05 vs. PBS) which was associated with increased trabecular thickness (30%, p<0.05 vs. PBS) (FIG. 15A and FIG. 15B) and number (28%, p<0.05 vs. PBS). Both 100 μg/kg and 300 μg/kg doses of YLL8-Ale increased cortical bone volume by approximately 16% and cortical thickness by approximately 15% (FIG. 15C).

[2] = In vivo anabolic effects, 4-month-old mice, 5 μg/kg s.c. 5×/week for 21 days; settings: for increase in femoral trabecular bone volume: vs PBS, YLL8 5 μg/kg, hPTH (1-34) 25 μg/kg
Procedure: FIGS. 10A-10D show the effects of YLL8 on bone formation in vivo. […] All mice received Alizarin red and Calcein at −7 and −2 days before euthanization.
Four-month-old female and male mice were treated with PBS control, YLL3 at 5 μg/kg, YLL8 at 5 μg/kg, or PTH at 25 μg/kg, sc., 5×/week for 28 days (n=4-6/group). Trabecular bone volume was obtained by micro CT scans at the distal femoral metaphysis. Osteocalcin and CTX-1 were measured at the serum.
In another similar study to determine whether YLLs would affect bone metabolism in vivo, YLL3 and YLL8 were injected into 4-month-old female and male mice at 5 μg/kg subcutaneously ([…]). hPTH (1-34) was injected s.c. at 25 μg/kg, 5×/week as a positive control. […] Both YLL8 and hPTH (1-34) increased femoral trabecular bone volume by approximately 130% in the female mice, compared to the PBS-treated mice. In the male mice, YLL8 increase femoral trabecular bone volume by approximately 70%, and hPTH (1-34) increased femoral trabecular bone volume by approximately 30% (FIG. 10A). Mineral apposition rate, a parameter corresponding to osteoblast activity, was increased by more than 70% in the females and about 30% in the males, resulting in an overall increase in surface-based bone formation rate (FIGS. 10A, 10B). The anabolic effect of YLLs was confirmed by increased trabecular bone mass measured at the distal femur metaphysis by micro CT and serum level of osteocalcin (FIG. 11).

With `Cc1ccccc1NC(=O)Nc1ccc(CC(=O)N[C@@H](CCCNC(N)=O)C(=O)N[C@@H](CCC(=O)O)C(=O)N[C@@H](CO)C(=O)N[C@H](C(=O)NCCOCCOCCNC(=O)CCC(=O)NCCOCCOCCNC(=O)CCC(=O)N[C@@H](CCCCNC(=O)[C@H](N)CSC2CC(=O)N(CC3CCC(C(=O)NCCCC(O)(P(=O)(O)O)P(=O)(O)O)CC3)C2=O)C(N)=O)C(C)C)cc1` (stereo partly shown) [YLL3-Ale] the “bone formation or bone mass compared to PBS control” value [1] was “failed to achieve statistically significant differences”.
For `CC[C@H](C)[C@H](NC(=O)[C@H](CCC(=O)O)NC(=O)[C@H](CO)NC(=O)[C@@H](NC(=O)[C@@H](N)CO)C(C)C)C(=O)N[C@@H](CCC(N)=O)C(=O)N[C@@H](CC(C)C)C(=O)N[C@@H](CCSC)C(=O)N[C@@H](Cc1cnc[nH]1)C(=O)N[C@@H](CC(N)=O)C(=O)N[C@@H](CC(C)C)C(=O)NCC(=O)N[C@@H](CCCCN)C(=O)N[C@@H](Cc1cnc[nH]1)C(=O)N[C@@H](CC(C)C)C(=O)N[C@@H](CC(N)=O)C(=O)N[C@@H](CO)C(=O)N[C@@H](CCSC)C(=O)N[C@@H](CCC(=O)O)C(=O)N[C@@H](CCCN=C(N)N)C(=O)N[C@H](C(=O)N[C@@H](CCC(=O)O)C(=O)N[C@@H](Cc1c[nH]c2ccccc12)C(=O)N[C@@H](CC(C)C)C(=O)N[C@@H](CCCN=C(N)N)C(=O)N[C@@H](CCCCN)C(=O)N[C@@H](CCCCN)C(=O)N[C@@H](CC(C)C)C(=O)N[C@@H](CCC(N)=O)C(=O)N[C@@H](CC(=O)O)C(=O)N[C@H](C(=O)N[C@@H](Cc1cnc[nH]1)C(=O)N[C@@H](CC(N)=O)C(=O)N[C@@H](Cc1ccccc1)C(=O)O)C(C)C)C(C)C` [hPTH (1-34), Teriparatide], the “increase in femoral trabecular bone volume” value ([2]; female mice) was “approximately 130%” and the “increase in femoral trabecular bone volume” value ([2]; male mice) was “approximately 30%”.
For `Cc1ccccc1NC(=O)Nc1ccc(CC(=O)N[C@@H](CCCCNC(=O)CCc2cccnc2)C(=O)N[C@@H](CCCC(=O)O)C(=O)NC2(C(N)=O)CCCCC2)cc1` [YLL8], the “body weights and visible side-effects” value ([2]; 5 μg/kg s.c., daily injection for 21 days) was “did not change body weights or cause any visible side-effects”.

Source: US12157778B2, “Peptides for activation of cell signaling in osteoprogenitor cells” (The Regents of the University of California, priority 2018, dated 2024)
